The cell lines below were run with CC[C@@H]1C(=O)N(C)c2cnc(Nc3ccc(C(=O)NC4CCN(C)CC4)cc3OC)nc2N1C1CCCC1 [BI-2536] + O=C(c1cc(Cc2n[nH]c(=O)c3ccccc23)ccc1F)N1CCN(C(=O)C2CC2)CC1 [Olaparib] (partner 8 µM) (assay: relative viability (nuclei count vs DMSO), 5 days (fraction); higher = more cells survive). Conditions: first compound 0.3162 µM.
Procedure, shortened: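 The day after seeding in 1536-well plates, lung cancer cell lines were treated by pin tool with a single drug, or with a fixed anchor-drug dose together with five library-drug doses (not always all listed) in √10 steps. After 5 days, a combined fix-and-stain solution (final 0.05% Triton X-100, 1% formaldehyde, 1 ug/ml Hoechst) was added. Nuclei counted on 4× images gave relative viability as treated counts over vehicle counts, reported as the median of duplicate plates.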

Row | Cell Line | relative viability
1 | CAL-12T | 0.167
2 | NCI-H1651 | 0.142
3 | EPLC-272H | 0.081
4 | NCI-H2228 | 0.118
5 | NCI-H1792 | 0.0436
6 | NCI-H1355 | 0.169
7 | NCI-H3122 | 0.131
8 | NCI-H1437 | 0.23
9 | NCI-H1755 | 0.373
10 | NCI-H2023 | 0.0876
11 | HCC-15 | 0.163
12 | NCI-H1793 | 0.152
13 | PC-14 | 0.0538

Same assay, conditions: first compound 1 µM

Row | Cell Line | relative viability
14 | NCI-H522 | 0.316
15 | NCI-H727 | 0.576
16 | NCI-H1650 | 0.143
17 | EBC-1 | 0.133
18 | NCI-H1703 | 0.111
19 | NCI-H1993 | 0.486
20 | SW 1573 | 0.0718
21 | NCI-H838 | 0.0726
22 | LCLC-103H | 0.216
23 | NCI-H520 | 0.168
24 | NCI-H2126 | 0.241
25 | EMC-BAC-2 | 0.231
26 | NCI-H2085 | 0.381
27 | Calu-6 | 0.0892
28 | HCC-366 | 0.0223
29 | NCI-H1666 | 0.583
30 | NCI-H596 | 0.295
31 | LK-2 | 0.134
32 | NCI-H2087 | 0.102
33 | NCI-H2342 | 0.26
34 | SK-MES-1 | 0.177
35 | H3255 | 0.275
36 | COR-L23 | 0.111

Row | Cell Line | relative viability
37 | COR-L 105 | 0.296
38 | IA-LM | 0.102
39 | LOU-NH91 | 0.28
40 | ChaGo-K-1 | 0.15
41 | NCI-H2170 | 0.145
42 | NCI-H2405 | 0.416
43 | HOP-62 | 0.089
44 | HCC-44 | 0.33
45 | A549 | 0.0368
46 | SW 900 | 0.153
47 | LU99A | 0.149
48 | BEN | 0.364
49 | HARA | 0.0972
50 | NCI-H1648 | 0.275
51 | HCC-78 | 0.204
52 | NCI-H322M | 0.393
53 | LCLC-97TM1 | 0.0916
54 | NCI-H2009 | 0.126
55 | A-427 | 0.176
56 | NCI-H441 | 0.148
57 | NCI-H661 | 0.34
58 | NCI-H1734 | 0.153
59 | NCI-H460 | 0.0262

Row | Cell Line | relative viability
60 | NCI-H2347 | 0.405
61 | SK-LU-1 | 0.167
62 | NCI-H1395 | 0.355
63 | 201T | 0.205
64 | NCI-H1915 | 0.0963
65 | HCC-827 | 0.194
66 | LXF-289 | 0.0622
67 | NCI-H23 | 0.104
68 | NCI-H1299 | 0.221
69 | NCI-H647 | 0.0662
70 | CAL-12T | 0.19
71 | NCI-H1651 | 0.109
72 | EPLC-272H | 0.0599
73 | NCI-H2228 | 0.123
74 | NCI-H1792 | 0.0344
75 | NCI-H1355 | 0.17
76 | NCI-H3122 | 0.146
77 | NCI-H1437 | 0.247
78 | NCI-H1755 | 0.316
79 | NCI-H2023 | 0.0937
80 | HCC-15 | 0.144
81 | NCI-H1793 | 0.157
82 | PC-14 | 0.0392

From the supplement of paper PMC10307832
